Source: US20020071842A1, “Soluble CD1 compositions and uses thereof” (priority 2000, published 2002)
Entries after “also recorded” stand apart in the source; their conditions may differ.

Legend:
Assay in all cases: Plate-bound mCD1d fusion protein hybridoma stimulation assay (IL-2 ELISA)
Format in all cases: cell-based, mouse
VIII24 hybridoma = settings: VIII24 diverse TCR hybridoma; plate-bound mCD1d-IgGFc2a fusion protein preincubated with lipid antigen
Method in brief: (§1)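 Protein A plates coated with 400-600 ng/well mCD1d fusion protein and loaded with lipid antigen (40:1 antigen:protein unless specified) in PBS pH 7.2 for 24-48 hr at 37° C, washed, then given 1×10^5 hybridoma cells/well for 16-20 hr at 37° C. Supernatant IL-2 quantified by sandwich ELISA against murine IL-2 standard curve (pg/ml).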

KT/22 hybridoma = settings: KT/22 NKT hybridoma; plate-bound mCD1d-IgGFc2a fusion protein preincubated with lipid antigen
Method in brief: as §1

KT/23 hybridoma = settings: KT/23 NKT hybridoma; plate-bound mCD1d-IgGFc2a fusion protein preincubated with lipid antigen
Method in brief: as §1

XV19 hybridoma = settings: XV19 diverse TCR hybridoma; plate-bound mCD1d-IgGFc2a fusion protein preincubated with lipid antigen
Method in brief: as §1

24.7.C hybridoma = settings: 24 7.C NKT hybridoma; plate-bound mCD1d-IgGFc2a fusion protein preincubated with lipid antigen
Method in brief: as §1

14S.10.C hybridoma = settings: 14S.10 C diverse TCR hybridoma; plate-bound mCD1d-IgGFc2a fusion protein preincubated with lipid antigen
Method in brief: as §1

24.9.E hybridoma = settings: for IL-2 secretion: 24.9 E NKT hybridoma, plate-bound mCD1d-IgGFc2a fusion protein preincubated with lipid antigen
Method in brief: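 Lipid antigens were incubated with protein A-immobilized mCD1d fusion protein at pH 7.2 (or in citrate/phosphate buffer of specified pH, then neutralized), typically 40:1 antigen:protein. After washing, 1×10^5 hybridoma cells per well were added overnight, 16-20 hr, and IL-2 in supernatants was read by ELISA.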

14S.15.A hybridoma = settings: 14S.15.A diverse TCR hybridoma; plate-bound mCD1d-IgGFc2a fusion protein preincubated with lipid antigen
Method in brief: as §1

14S.7.N hybridoma = settings: 14S.7.N diverse TCR hybridoma; plate-bound mCD1d-IgGFc2a fusion protein preincubated with lipid antigen
Method in brief: as §1

DN32D3 hybridoma = settings: DN32D3 NKT hybridoma; plate-bound mCD1d-IgGFc2a fusion protein preincubated with lipid antigen
Method in brief: as §1

VII68 hybridoma = settings: VII68 diverse TCR hybridoma; plate-bound mCD1d-IgGFc2a fusion protein preincubated with lipid antigen
Method in brief: as §1

Vβ/9 hybridoma = settings: Vβ/9 NKT hybridoma; plate-bound mCD1d-IgGFc2a fusion protein preincubated with lipid antigen
Method in brief: as §1

KT/12 hybridoma = settings: KT/12 NKT hybridoma; plate-bound mCD1d-IgGFc2a fusion protein preincubated with lipid antigen
Method in brief: as §1

Compound	IL-2 secretion (VIII24 hybridoma)	IL-2 secretion (KT/22 hybridoma)	IL-2 secretion (KT/23 hybridoma)	IL-2 secretion (XV19 hybridoma)	IL-2 secretion (24.7.C hybridoma)	IL-2 secretion (14S.10.C hybridoma)	IL-2 response to mCD1d fusion protein pre-treated with purified or synthetic lipid (24.9.E hybridoma; 24.9.E hybridoma)	enhancement of antigen recognition after pre-incubation at pH 4.0 compared to pH 7.5 (24.9.E hybridoma; 24.9.E hybridoma, 3:1 molar ratio of antigen to protein, citrate/phosphate buffer)	pre-incubation pH giving maximal IL-2 release (24.9.E hybridoma; 24.9.E hybridoma, pH 7.5 to pH 3.0 tested)	IL-2 when the 19G11 anti-mCD1d mAb was included (24.9.E hybridoma; 24.9.E hybridoma, representative experiment, 19G11 blocking antibody included)	mean IL-2 produced (24.9.E hybridoma; 24.9.E hybridoma, representative experiment, mCD1d fusion protein pre-treated with antigen)	IL-2 secretion (24.9.E hybridoma)	IL-2 secretion (14S.15.A hybridoma)	IL-2 secretion (14S.7.N hybridoma)	IL-2 secretion (DN32D3 hybridoma)	IL-2 secretion (VII68 hybridoma)	IL-2 secretion (Vβ/9 hybridoma)	IL-2 secretion (KT/12 hybridoma)
CCCCCCCCCCCCCCCCCCCCCCCCCC(=O)N[C@@H](CO[C@H]1O[C@H](CO)[C@H](O)[C@H](O)[C@H]1O)[C@H](O)[C@H](O)CCCCCCCCCCCCCC [α-GalCer, α-galactosylceramide]	0 (A “0” indicates a mean of less than 50 pg/ml IL-2 was secreted)	+++ (“+++” indicates greater than 1000 pg/ml IL-2)	+++ (“+++” indicates greater than 1000 pg/ml IL-2)	0 (A “0” indicates a mean of less than 50 pg/ml IL-2 was secreted)	+++ (“+++” indicates greater than 1000 pg/ml IL-2)	0 (A “0” indicates a mean of less than 50 pg/ml IL-2 was secreted)	responded strongly; also recorded: secreted IL-2 efficiently	approximately 4 fold	4.0	103 pg/mL	2,089 pg/ml	+++ (“+++” indicates greater than 1000 pg/ml IL-2)	+ (“+” indicates 50-250 pg/ml)	0 (A “0” indicates a mean of less than 50 pg/ml IL-2 was secreted)	+++ (“+++” indicates greater than 1000 pg/ml IL-2)	0 (A “0” indicates a mean of less than 50 pg/ml IL-2 was secreted)	++ (“++” indicates 250-1000 pg/ml)	+++ (“+++” indicates greater than 1000 pg/ml IL-2)
phosphatidylinositol [PI]	0 (A “0” indicates a mean of less than 50 pg/ml IL-2 was secreted)	+ (“+” indicates 50-250 pg/ml)	+ (“+” indicates 50-250 pg/ml)	0 (A “0” indicates a mean of less than 50 pg/ml IL-2 was secreted)	0 (A “0” indicates a mean of less than 50 pg/ml IL-2 was secreted)	0 (A “0” indicates a mean of less than 50 pg/ml IL-2 was secreted)	only modestly increased IL-2 secretion; also recorded: significantly less IL-2					+ (“+” indicates 50-250 pg/ml)	0 (A “0” indicates a mean of less than 50 pg/ml IL-2 was secreted)	+ (“+” indicates 50-250 pg/ml)	0 (A “0” indicates a mean of less than 50 pg/ml IL-2 was secreted)	0 (A “0” indicates a mean of less than 50 pg/ml IL-2 was secreted)	0 (A “0” indicates a mean of less than 50 pg/ml IL-2 was secreted)	+ (“+” indicates 50-250 pg/ml)
unglycosylated ceramide	0 (A “0” indicates a mean of less than 50 pg/ml IL-2 was secreted)	0 (A “0” indicates a mean of less than 50 pg/ml IL-2 was secreted)	0 (A “0” indicates a mean of less than 50 pg/ml IL-2 was secreted)	0 (A “0” indicates a mean of less than 50 pg/ml IL-2 was secreted)	0 (A “0” indicates a mean of less than 50 pg/ml IL-2 was secreted)	0 (A “0” indicates a mean of less than 50 pg/ml IL-2 was secreted)	neither the unglycosylated ceramide, nor the closely related β-linked form, β-GalCer, were recognized					0 (A “0” indicates a mean of less than 50 pg/ml IL-2 was secreted)	0 (A “0” indicates a mean of less than 50 pg/ml IL-2 was secreted)	0 (A “0” indicates a mean of less than 50 pg/ml IL-2 was secreted)	0 (A “0” indicates a mean of less than 50 pg/ml IL-2 was secreted)	0 (A “0” indicates a mean of less than 50 pg/ml IL-2 was secreted)	0 (A “0” indicates a mean of less than 50 pg/ml IL-2 was secreted)	0 (A “0” indicates a mean of less than 50 pg/ml IL-2 was secreted)
β-galactosylceramide [β-GalCer]	0 (A “0” indicates a mean of less than 50 pg/ml IL-2 was secreted)	0 (A “0” indicates a mean of less than 50 pg/ml IL-2 was secreted)	0 (A “0” indicates a mean of less than 50 pg/ml IL-2 was secreted)	0 (A “0” indicates a mean of less than 50 pg/ml IL-2 was secreted)	0 (A “0” indicates a mean of less than 50 pg/ml IL-2 was secreted)		neither the unglycosylated ceramide, nor the closely related β-linked form, β-GalCer, were recognized					0 (A “0” indicates a mean of less than 50 pg/ml IL-2 was secreted)	0 (A “0” indicates a mean of less than 50 pg/ml IL-2 was secreted)	0 (A “0” indicates a mean of less than 50 pg/ml IL-2 was secreted)	0 (A “0” indicates a mean of less than 50 pg/ml IL-2 was secreted)	0 (A “0” indicates a mean of less than 50 pg/ml IL-2 was secreted)	0 (A “0” indicates a mean of less than 50 pg/ml IL-2 was secreted)	0 (A “0” indicates a mean of less than 50 pg/ml IL-2 was secreted)
